Experimental data published in publication PMC10067956, “Pyrazole derivatives of pyridine and naphthyridine as proapoptotic agents in cervical and breast cancer cells” (Scientific Reports, 2023).
Read-outs that look alike come from different tables or passages of the source.

Key:
HeLa cells [1] = assay: LDH cytotoxicity assay, HeLa; type: cell-based; details: IC50 and 2 × IC50
Procedure: (§1) Briefly, 1 × 10^4 cells/well were seeded in a flat bottom 96 well cell culture plate and kept for overnight incubation. Cells were treated with potent compounds 5j and 5k at the IC50 and 2 × IC50 values. The plate was centrifuged at 1500 rpm for 3 min and the supernatant (50 µL) transferred to a new sterile 96-well plate. After addition of substrate mix (50 µL), plate was placed at room temperature for 30 min. The absorbance was measured at 490 nm and 680 nm using microplate reader (FLUOstar Omega, Ortenberg, Germany). Cytotoxicity was measured as described earlier.

HeLa cells [2] = assay: Cell cycle analysis by flow cytometry; type: cell-based; details: IC50 and 2 × IC50, PI staining
Procedure: Briefly, HeLa cells (2 × 10^5 cells/mL) were grown and treated with IC50 and 2 × IC50 values of potent compound 5j. Cells were harvested and washed three times with PBS to remove traces of cell culture medium. Cells were fixed in 70% ethanol for 24 h at − 20 °C. Pelletized cells were then re-suspended in 1 mL of a solution containing PI (20 µg/mL), RNase A (50 µg/mL) and 0.1% (v/v) Triton X-100. Samples were kept in the dark for 30 min at room temperature and analyzed within an hour as reported earlier.

MCF-7 cells [3] = assay: MTT cell viability assay, MCF-7; type: cell-based; details: Homo sapiens; for inhibition at 100 µM: MCF7, 100 µM, 24 h, read-out: %Inhibition at 100 µM, MCF-7 cell line
Procedure: (§2) The anti-proliferative activity of the studied compounds was determined against breast (MCF-7) and cervical (HeLa) cancer cells by the MTT cell viability assay as described earlier[44],[45]. BHK-21 cells were used as non-cancerous cells to study the effect of these compounds on normal cells. Briefly, 1 × 10^4 cells/well were seeded in 96-well microtiter plate and placed in an incubator (Heracell™ VIOS 160i, Thermo-Fisher Scientific) set for 5% CO2 at 37 °C. The stock solutions of compounds were prepared at 10 mM concentration in DMSO. Initial working solutions were prepared in cell culture medium at 1 mM concentration. […] After 24 h, medium in each well was aspirated and cells were treated for 4 h with serum free medium containing 0.2 mg/mL MTT reagent. The solubilizing reagent (10% acidified sodium dodecyl sulfate in propanol in a 1:1 ratio) was added to solubilize formazan crystals. Plates were kept at 37 °C for 30 min and then placed on a gyratory shaker for few min for complete solubilization of formazan crystals. The optical density was measured at 570 nm by microplate reader and IC50 values were calculated from three independent experiments as previously reported.

HeLa cells [4] = assay: Mitochondrial membrane potential (JC-1), HeLa; type: cell-based; details: IC50 and 2 × IC50, 24 h
Procedure: (§3) Mitochondrial membrane potential was determined by a fluorimetric method using fluorescent dye 5′,5′,6′,6′-tetrachloro-1′,1′,3′,3′-[…] (JC-1). Briefly, 1 × 10^5 cells were grown and treated with IC50 and 2 × IC50 values of compounds 5j and 5k for 24 h. Cells were harvested, pelletized and treated with 0.25 µM of fluorescent dye JC-1. Each sample was transferred to a flat-bottomed black 96-well plate, which was kept in the dark for 20 min. Fluorescence emission was measured by a fluorescent microplate reader (FLUOstar Omega BMG Labtech, Germany) at 590 nm and 520 nm for j-aggregates and j-monomers. Results were measured as ratio of red/green fluorescence as previously reported.

caspase-3/7 = assay: Activated caspase-3/7 in HeLa cells; type: cell-based; details: versus control
From the text: (§4) Results were represented as fold increase in activated caspase-9 and caspase-3/7 as compared to control as previously reported.

HeLa cells [5] = assay: Alkaline comet assay; type: cell-based
Procedure: Comet assay is a sensitive method to determine DNA damage which was performed after some modifications in a published protocol. […] The cervical cancer (HeLa) cells were treated with IC50 value of potent compound 5j for 24 h. Cells were harvested, collected and centrifuged to obtain a pellet. Pelleted cells were re-suspended in media. Untreated cells were used as control cells. For the positive control, 2 × 10^4 cells were treated with 20 µM of freshly prepared hydrogen peroxide for 30 min. Slides were prepared by coating with 1% normal melting point agarose (NMPA) on one side and then dried. Samples (2 × 10^4 cells/sample) were re-suspended in 1 mL of PBS. In a tube, 0.4 mL cell suspension was mixed with 1.2 mL of 0.9% low melting point agarose (LMPA) and mixed thoroughly by pipetting. A cell suspension of 65 µL was laid on coated slide and evenly distributed by placing a coverslip over it. Slides were placed at − 20 °C for 10 min. Then the slides were placed at 4 °C in the dark in a lysis buffer of 100 mM EDTA, 10 mM Trizma base, 2.5 M sodium chloride, 10% DMSO and 1% Triton X-100 in distilled water with a pH of 10. After an overnight incubation, slides were washed with chilled distilled water. These slides were then placed in electrophoresis chamber (Wealtec, USA) having chilled (4 °C) alkali unwinding solution (300 mM sodium hydroxide and 1 mM EDTA in distilled water). Electrophoresis was carried out at an adjusted voltage (between 0.7 and 1.0 V/cm) for 35 min in an electrophoresis tank. Slides were then immersed in neutralization solution (0.4 M Trizma base in 800 mL water, pH 7.5) for 10 min in dark. Propidium iodide (20 µL of 0.01 mg/mL) was used as fluorescent dye to stain DNA. Slides were placed in dark at room temperature. After 10 min, images were captured using a fluorescence microscope (Nikon ECLIPSE Ni–U, Japan) at an excitation/emission wavelength of 493/632 nm. Microscopic images were analyzed using ImageJ (ij152-win-java8, National Institutes of Health, Bethesda, USA) and OpenComet (OpenComet_imagej_v1.3.1, USA) where the DNA content in the head and tail of the comets were automatically measured by the software. Results of three independent experiments were expressed as tail length ([…]), %DNA in comet tail and comet tail moment.

caspase-9 [6] = assay: Activated caspase-9 in HeLa cells; type: cell-based; details: versus control
From the text: as §4

HeLa cells [7] = assay: Oxidative stress (H2DCF-DA staining), HeLa; type: cell-based; details: IC50 and 2 × IC50
Procedure: (§5) After washing with sterile PBS, cells were fixed and 10 µL (0.01 mg/mL) of H2DCF-DA dye was added on microscopic slides. After an incubation of 10 min at room temperature in the dark, fluorescence photomicrographs were obtained as previously reported.

HeLa cells [8] = assay: Fluorescence microscopy of apoptosis (PI, DAPI), HeLa; type: cell-based; details: IC50 and 2 × IC50, 24 h
Procedure: (§6) Morphological changes in compound treated cancer cells were identified using propidium iodide (PI) and 4′,6-diamidino-2-phenylindole (DAPI) staining with observing under a fluorescence microscope (Nikon ECLIPSE Ni–U, Japan). […] After 24 h, media was aspirated, cells were washed with sterile phosphate buffered saline (PBS) and fixed by using 4% formalin and 0.1% Triton X–100 as adherent cells fixation solution. Further, 10 µL (0.01 mg/mL) of PI or DAPI solution was added on slides and kept for 10 min in dark. Fluorescence photomicrographs were captured as previously reported.

BHK-21 cells = assay: MTT cell viability assay, non-cancerous BHK-21; type: cell-based, Baby Hamster; details: Mesocricetus auratus, 24 h, read-out: IC50 (µM) ± SEM, BHK-21 cell line
Procedure: as §2

herring sperm DNA = assay: DNA binding studies (UV absorption); details: 200 µM compound; 0 to 396 µM DNA; hypochromicity, no red or blue shift
Procedure: A stock solution of 5 mg of DNA was prepared in 10 mL of distilled water and the purity of the DNA (A260/A280) was in the range of 1.6 to 1.9. Compound 5j was tested at a final concentration of 200 µM with varying end concentrations (0 to 396 µM) of DNA. The plate was placed at room temperature for 30 min and the UV absorption spectrum was recorded by microplate reader (FLUOstar Omega BMG Labtech, Ortenberg, Germany).

HeLa cells [9] = assay: MTT cell viability assay, HeLa; type: cell-based; details: 24 h; for IC50: read-out: IC50 (µM) ± SEM, HeLa Cell Line; for inhibition at 100 µM: read-out: %Inhibition at 100 µM, HeLa cell line
Procedure: as §2

MCF-7 cells [10] = assay: Mitochondrial membrane potential (JC-1), MCF-7; type: cell-based; details: IC50 and 2 × IC50, 24 h
Procedure: as §3

MCF-7 cells [11] = assay: Oxidative stress (H2DCF-DA staining), MCF-7; type: cell-based; details: IC50 and 2 × IC50
Procedure: as §5

MCF-7 cells [12] = assay: Fluorescence microscopy of apoptosis (PI, DAPI), MCF-7; type: cell-based; details: IC50 and 2 × IC50, 24 h
Procedure: as §6

MCF-7 cells [13] = assay: LDH cytotoxicity assay, MCF-7; type: cell-based; details: IC50 and 2 × IC50
Procedure: as §1

caspase-9 [14] = assay: Activated caspase-9 in MCF-7 cells; type: cell-based; details: versus control
From the text: as §4

caspase-7 = assay: Activated caspase-7 in MCF-7 cells; type: cell-based; details: versus control
From the text: as §4

[15] = 5j 6.4 µM 24 h, H2O2 20 µM 30 min (positive control)

Cc1[nH]nc2nc(N)c3c(N)nc4ccc(F)cc4c3c12 [5j]
leaked LDH (cytotoxic effect) (HeLa cells [1]): dose dependent increase in leaked LDH
cell cycle arrest (HeLa cells [2]): G0/G1 arrest
inhibition at 100 µM (MCF-7 cells [3]): 47.8%
mitochondrial membrane potential, ratio of red/green fluorescence (JC-1) (HeLa cells [4]): decrease in red/green ratio
fold increase in activated caspase-3/7 (caspase-3/7; at 2 × IC50, 18 h): 4.8 folds
fold increase in activated caspase-3/7 (caspase-3/7; at IC50, 18 h): about 4 folds
DNA damage in comet assay (HeLa cells [5]; 6.4 µM): DNA damage in treated cells, comparable to positive control
%DNA in tail ± SD (HeLa cells [5]; 5j 6.4 µM 24 h): 41.02 ± 7.61%
Tail length ± SD (HeLa cells [5]; [15]): 43 ± 10.3 µm
Tail moment ± SD (HeLa cells [5]; [15]): 23.22 ± 1.61
fold increase in activated caspase-9 (caspase-9 [6]; at 2 × IC50, 18 h): 2.2 folds
fold increase in activated caspase-9 (caspase-9 [6]; at IC50, 18 h): 1.4 folds
ROS production, H2DCF-DA staining (HeLa cells [7]): ROS generation
morphological features of apoptosis, PI and DAPI staining (HeLa cells [8]): Cell detachment, shrinkage of cells and condensation of nuclear material was observed
IC50 (BHK-21 cells): 27.5 ± 1.32 µM
mode of interaction with DNA (absorption spectra) (herring sperm DNA): non-covalently bound to DNA
IC50 (HeLa cells [9]): 6.43 ± 0.45 µM
inhibition at 100 µM (HeLa cells [9]; Homo sapiens): 94.8%
IC50 (HeLa cells [9]; Homo sapiens): 6.4 ± 0.45 µM

Cc1[nH]nc2nc(N)c3c(N)nc4ccc(Cl)cc4c3c12 [5k]
mitochondrial membrane potential, ratio of red/green fluorescence (JC-1) (MCF-7 cells [10]): decrease in red/green ratio
inhibition at 100 µM (MCF-7 cells [3]): 69.5%
IC50 (MCF-7 cells [3]; MCF7, 24 h, read-out: IC50 (µM) ± SEM, MCF-7 cell line): 2.03 ± 0.23 µM
ROS production, H2DCF-DA staining (MCF-7 cells [11]): ROS generation
morphological features of apoptosis, PI and DAPI staining (MCF-7 cells [12]): Cell detachment, shrinkage of cells and condensation of nuclear material was observed
IC50 (BHK-21 cells): 8.21 ± 0.57 µM
leaked LDH (cytotoxic effect) (MCF-7 cells [13]): dose dependent increase in leaked LDH
fold increase in activated caspase-9 (caspase-9 [14]; at 2 × IC50, 18 h): 1.4 folds
fold increase in activated caspase-9 (caspase-9 [14]; at IC50, 18 h): 1.1 folds
fold increase in activated caspase-7 (caspase-7; at 2 × IC50, 18 h): 1.8 fold
fold increase in activated caspase-7 (caspase-7; at IC50, 18 h): 1.4 fold
inhibition at 100 µM (HeLa cells [9]; Homo sapiens): 96.4%
IC50 (HeLa cells [9]; Homo sapiens): 7.25 ± 0.12 µM
